Assay results reported in ChEMBL document CHEMBL1201862, “PubChem BioAssay data set” (2004).
Calls of active or inactive are those of the source.

Columns and labels:
Leucine aminopeptidase = target: T1, Leucine aminopeptidase (Plasmodium falciparum 3D7, UniProt Q8IL11); assay: P. falciparum M17LAP inhibitors, primary screen, biochemical, fluorogenic H-Leu-NHMec substrate, 1536-well (AID 1619); format: functional
T1 sequence (Q8IL11 whole entry): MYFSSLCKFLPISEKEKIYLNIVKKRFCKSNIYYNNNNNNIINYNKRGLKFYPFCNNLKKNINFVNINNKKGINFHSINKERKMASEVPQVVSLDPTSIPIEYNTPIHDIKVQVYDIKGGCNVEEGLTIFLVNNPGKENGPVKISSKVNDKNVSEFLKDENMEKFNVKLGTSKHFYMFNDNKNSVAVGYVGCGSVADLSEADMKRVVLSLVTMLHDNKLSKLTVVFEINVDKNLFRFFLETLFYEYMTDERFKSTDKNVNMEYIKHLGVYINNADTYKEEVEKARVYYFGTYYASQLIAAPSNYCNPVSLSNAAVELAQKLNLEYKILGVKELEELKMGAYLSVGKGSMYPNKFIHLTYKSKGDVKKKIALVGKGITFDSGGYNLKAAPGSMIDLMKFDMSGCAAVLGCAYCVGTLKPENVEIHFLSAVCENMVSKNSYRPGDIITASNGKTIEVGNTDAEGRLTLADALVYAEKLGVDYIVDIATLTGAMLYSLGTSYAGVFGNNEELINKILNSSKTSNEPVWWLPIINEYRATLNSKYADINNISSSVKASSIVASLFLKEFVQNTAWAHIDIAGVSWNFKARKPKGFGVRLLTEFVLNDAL

Aspartyl aminopeptidase = target: T2, Aspartyl aminopeptidase (Plasmodium falciparum 3D7, UniProt Q8I2J3); assay: Counterscreen for inhibitors of M1 and M17 aminopeptidases: QFRET-based biochemical high throughput dose response assay for inhibitors of the Plasmodium falciparum M18 Aspartyl Aminopeptidase (PFM18AAP). [Related PubChem assays: 1619 (Screening assay (M17LAP inhibitors).), 1445 (Screening assay (M1AAP inhibitors).)]
T2 sequence (Q8I2J3 whole entry): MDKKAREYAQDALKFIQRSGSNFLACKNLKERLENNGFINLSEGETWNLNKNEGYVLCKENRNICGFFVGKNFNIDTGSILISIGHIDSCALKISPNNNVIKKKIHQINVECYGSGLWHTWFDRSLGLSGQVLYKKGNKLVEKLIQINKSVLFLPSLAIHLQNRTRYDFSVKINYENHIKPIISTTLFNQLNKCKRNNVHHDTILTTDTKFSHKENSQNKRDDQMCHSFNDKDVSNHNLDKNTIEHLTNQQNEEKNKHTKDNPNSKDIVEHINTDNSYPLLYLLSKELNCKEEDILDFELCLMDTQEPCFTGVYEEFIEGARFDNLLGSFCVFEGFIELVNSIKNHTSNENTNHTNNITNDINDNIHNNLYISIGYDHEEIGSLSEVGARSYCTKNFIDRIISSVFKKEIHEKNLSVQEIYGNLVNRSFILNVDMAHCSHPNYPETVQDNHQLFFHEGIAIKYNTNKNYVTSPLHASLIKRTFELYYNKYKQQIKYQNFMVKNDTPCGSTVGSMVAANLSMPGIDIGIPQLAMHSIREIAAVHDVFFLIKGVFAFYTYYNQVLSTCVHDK

Procathepsin L = Procathepsin L (Homo sapiens, UniProt P07711); assay: cathepsin L inhibitors, dose response, counter-screen for M1/M17 aminopeptidase inhibitor project, biochemical, QFRET, 1536-well (AID 2214)
Sequence of Procathepsin L (P07711 whole entry): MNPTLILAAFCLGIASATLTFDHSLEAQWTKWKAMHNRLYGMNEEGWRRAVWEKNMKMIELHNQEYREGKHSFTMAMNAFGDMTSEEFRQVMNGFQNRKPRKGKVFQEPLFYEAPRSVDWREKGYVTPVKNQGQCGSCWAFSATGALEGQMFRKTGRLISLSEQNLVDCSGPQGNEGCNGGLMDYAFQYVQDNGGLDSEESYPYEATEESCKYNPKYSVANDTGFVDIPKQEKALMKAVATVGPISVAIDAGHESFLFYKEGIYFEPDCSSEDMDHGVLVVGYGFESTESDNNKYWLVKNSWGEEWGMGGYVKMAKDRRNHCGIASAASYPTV

[1] = target: Heat shock protein HSP 90-alpha (Homo sapiens, UniProt P07900); assay: Luminescence-based dose response biochemical high throughput screening assay for inhibitors of the Heat Shock Protein 90 (HSP90). [Related pubchem assays: 1831 (Summary AID.), 1846 (Confirmation screen.), 1789 (Primary screen.)]
Caspase-3 = target: T3, Caspase-3 (Homo sapiens, UniProt P42574); format: functional;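 further: Dose-response selectivity test against caspase-3 for candidate inhibitors of sentrin-specific proteases (SENPs)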
T3 sequence (P42574 whole entry): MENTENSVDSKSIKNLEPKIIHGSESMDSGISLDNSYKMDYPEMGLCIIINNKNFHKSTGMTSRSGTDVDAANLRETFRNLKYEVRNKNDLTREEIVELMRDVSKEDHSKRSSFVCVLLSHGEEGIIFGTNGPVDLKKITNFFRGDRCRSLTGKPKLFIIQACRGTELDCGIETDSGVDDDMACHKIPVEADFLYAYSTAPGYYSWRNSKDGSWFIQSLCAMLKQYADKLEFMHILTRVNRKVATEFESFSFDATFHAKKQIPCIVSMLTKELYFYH

[2] = target: T4, Sentrin-specific protease 7 (Homo sapiens, UniProt Q9BQF6); format: functional;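 further: Luminescence-based dose-response confirmation of ultra-high-throughput screening hits, measuring inhibition of SENP7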
T4 sequence (Q9BQF6 whole entry): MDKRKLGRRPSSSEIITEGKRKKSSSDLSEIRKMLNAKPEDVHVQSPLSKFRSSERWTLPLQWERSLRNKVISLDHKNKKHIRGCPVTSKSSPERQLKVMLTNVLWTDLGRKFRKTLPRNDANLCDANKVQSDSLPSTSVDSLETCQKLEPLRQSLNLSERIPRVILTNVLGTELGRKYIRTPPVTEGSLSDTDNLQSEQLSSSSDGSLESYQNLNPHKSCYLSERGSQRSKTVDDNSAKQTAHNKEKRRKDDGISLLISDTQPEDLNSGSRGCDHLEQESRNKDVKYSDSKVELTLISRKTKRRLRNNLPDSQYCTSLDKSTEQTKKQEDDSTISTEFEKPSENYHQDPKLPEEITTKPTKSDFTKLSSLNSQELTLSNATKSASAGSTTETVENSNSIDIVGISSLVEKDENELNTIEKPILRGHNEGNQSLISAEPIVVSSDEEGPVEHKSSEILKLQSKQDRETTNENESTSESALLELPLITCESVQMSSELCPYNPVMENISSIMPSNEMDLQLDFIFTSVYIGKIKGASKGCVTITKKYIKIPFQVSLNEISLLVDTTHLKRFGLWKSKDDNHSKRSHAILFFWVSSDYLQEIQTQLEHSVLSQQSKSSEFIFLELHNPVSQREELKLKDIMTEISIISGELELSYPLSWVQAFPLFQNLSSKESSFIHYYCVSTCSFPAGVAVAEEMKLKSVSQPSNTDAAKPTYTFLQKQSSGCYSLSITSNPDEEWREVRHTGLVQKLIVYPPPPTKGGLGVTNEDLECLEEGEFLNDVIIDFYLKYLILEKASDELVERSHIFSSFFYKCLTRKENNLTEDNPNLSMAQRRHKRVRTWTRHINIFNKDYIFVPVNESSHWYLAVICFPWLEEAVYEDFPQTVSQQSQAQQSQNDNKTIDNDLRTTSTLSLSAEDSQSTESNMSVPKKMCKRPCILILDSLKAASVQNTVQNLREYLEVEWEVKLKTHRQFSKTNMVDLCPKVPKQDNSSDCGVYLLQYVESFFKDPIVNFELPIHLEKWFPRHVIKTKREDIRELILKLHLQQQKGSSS

[3] = target: T5, Sentrin-specific protease 6 (Homo sapiens, UniProt Q9GZR1); format: functional;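 further: Luminescence-based dose-response confirmatory assay of SENP6 inhibition, following up an ultra-high-throughput screen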
T5 sequence (Q9GZR1 whole entry): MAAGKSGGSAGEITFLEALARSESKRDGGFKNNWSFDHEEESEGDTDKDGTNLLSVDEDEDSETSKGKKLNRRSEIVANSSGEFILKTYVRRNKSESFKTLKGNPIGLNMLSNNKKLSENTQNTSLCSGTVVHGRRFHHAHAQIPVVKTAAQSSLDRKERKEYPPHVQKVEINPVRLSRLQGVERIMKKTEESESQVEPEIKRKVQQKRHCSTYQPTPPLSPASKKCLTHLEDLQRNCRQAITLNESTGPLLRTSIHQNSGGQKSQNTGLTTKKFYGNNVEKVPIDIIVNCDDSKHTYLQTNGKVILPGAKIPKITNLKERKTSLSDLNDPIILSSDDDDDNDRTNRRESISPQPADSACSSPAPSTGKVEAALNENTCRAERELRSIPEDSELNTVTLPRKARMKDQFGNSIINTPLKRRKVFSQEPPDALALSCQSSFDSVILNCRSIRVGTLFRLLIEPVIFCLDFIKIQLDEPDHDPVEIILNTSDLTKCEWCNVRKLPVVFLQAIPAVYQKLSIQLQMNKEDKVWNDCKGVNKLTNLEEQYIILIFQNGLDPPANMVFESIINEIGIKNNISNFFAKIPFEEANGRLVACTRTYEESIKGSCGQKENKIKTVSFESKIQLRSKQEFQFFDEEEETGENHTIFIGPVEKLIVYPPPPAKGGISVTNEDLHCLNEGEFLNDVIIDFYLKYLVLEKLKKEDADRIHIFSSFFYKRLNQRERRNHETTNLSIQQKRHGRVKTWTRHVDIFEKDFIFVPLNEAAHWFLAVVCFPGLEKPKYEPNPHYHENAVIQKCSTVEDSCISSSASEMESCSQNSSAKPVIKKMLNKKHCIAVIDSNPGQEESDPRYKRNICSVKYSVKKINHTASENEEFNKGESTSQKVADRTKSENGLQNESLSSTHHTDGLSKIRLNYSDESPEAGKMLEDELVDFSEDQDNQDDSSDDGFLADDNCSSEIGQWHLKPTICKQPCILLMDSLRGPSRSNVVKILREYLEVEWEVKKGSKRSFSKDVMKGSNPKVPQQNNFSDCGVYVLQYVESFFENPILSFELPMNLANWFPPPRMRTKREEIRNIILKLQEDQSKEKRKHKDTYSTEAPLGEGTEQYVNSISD

[4] = target: T6, Sentrin-specific protease 8 (Homo sapiens, UniProt Q96LD8); format: functional;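 further: luminescence read-out of SENP8 inhibition, dose-response confirmation following an ultra-high-throughput screen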
T6 sequence (Q96LD8 whole entry): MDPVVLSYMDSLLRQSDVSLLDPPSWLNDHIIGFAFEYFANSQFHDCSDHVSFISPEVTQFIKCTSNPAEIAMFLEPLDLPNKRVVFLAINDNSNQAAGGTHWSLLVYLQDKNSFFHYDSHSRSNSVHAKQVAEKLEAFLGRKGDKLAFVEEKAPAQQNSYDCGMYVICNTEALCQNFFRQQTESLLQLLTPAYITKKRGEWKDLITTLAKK

Prothrombin = Prothrombin (Homo sapiens, UniProt P00734); assay: Thrombin 1536 HTS Dose Response Confirmation. [Related pubchem assays: 1046 (Thrombin 1536 HTS; hits were confirmed in this assay)]; format: functional
[5] = inhibitors of firefly luciferase expression or activity, dose response, H4 neuroglioma cells, luminescence (AID 1990); format: functional, cell-based
[6] = Luminescence Cell-Based Dose Response HTS to Identify Inhibitors of 5'UTR Stem-Loop Driven Prion Protein mRNA Translation in H4 Neuroglioblastoma Cells. [Related pubchem assays: 1827 (Project Summary), 1813 (Primary HTS)]; format: functional
[7] = inhibitors of SNCA 5'UTR-driven reporter translation, confirmation, H4 neuroglioma cells, luminescence (AID 1988); format: functional, cell-based
[8] = target: T7, Mannose-6-phosphate isomerase (Homo sapiens, UniProt P34949); assay: human PMI inhibitors, high substrate, primary screen, biochemical, fluorescence intensity, high mannose 6-phosphate (AID 1220)
T7 sequence (P34949 whole entry): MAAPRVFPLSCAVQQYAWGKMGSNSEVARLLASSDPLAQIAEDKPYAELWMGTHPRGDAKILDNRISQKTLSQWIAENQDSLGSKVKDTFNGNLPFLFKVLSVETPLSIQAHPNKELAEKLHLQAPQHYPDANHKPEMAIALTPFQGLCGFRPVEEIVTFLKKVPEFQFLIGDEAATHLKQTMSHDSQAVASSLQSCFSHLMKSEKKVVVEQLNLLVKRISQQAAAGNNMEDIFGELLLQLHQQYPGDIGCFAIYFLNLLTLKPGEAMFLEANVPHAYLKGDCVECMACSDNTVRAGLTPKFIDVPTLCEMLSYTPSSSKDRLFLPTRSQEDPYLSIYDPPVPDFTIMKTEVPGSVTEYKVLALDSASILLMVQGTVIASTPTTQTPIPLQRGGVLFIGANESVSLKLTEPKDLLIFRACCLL

Kallikrein-7 = Kallikrein-7 (Homo sapiens, UniProt P49862); assay: Fluorescence Intensity-based biochemical primary high throughput dose response assay to identify activators of kallikrein-7 (K7) zymogen.
Sequence of Kallikrein-7 (P49862 whole entry): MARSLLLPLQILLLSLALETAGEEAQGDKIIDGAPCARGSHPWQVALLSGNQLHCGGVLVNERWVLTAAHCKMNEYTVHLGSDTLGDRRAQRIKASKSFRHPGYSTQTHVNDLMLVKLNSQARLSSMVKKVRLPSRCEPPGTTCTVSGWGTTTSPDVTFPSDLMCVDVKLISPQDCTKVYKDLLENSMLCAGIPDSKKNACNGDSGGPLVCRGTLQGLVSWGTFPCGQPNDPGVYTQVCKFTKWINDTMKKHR

[9] = target: Luciferin 4-monooxygenase (Photinus pyralis, UniProt P08659); assay: Counter Screen for Luciferase-based Assay Positives. [Related pubchem assays: 620, 618, 411 ]
Sequence of Luciferin 4-monooxygenase (P08659 whole entry): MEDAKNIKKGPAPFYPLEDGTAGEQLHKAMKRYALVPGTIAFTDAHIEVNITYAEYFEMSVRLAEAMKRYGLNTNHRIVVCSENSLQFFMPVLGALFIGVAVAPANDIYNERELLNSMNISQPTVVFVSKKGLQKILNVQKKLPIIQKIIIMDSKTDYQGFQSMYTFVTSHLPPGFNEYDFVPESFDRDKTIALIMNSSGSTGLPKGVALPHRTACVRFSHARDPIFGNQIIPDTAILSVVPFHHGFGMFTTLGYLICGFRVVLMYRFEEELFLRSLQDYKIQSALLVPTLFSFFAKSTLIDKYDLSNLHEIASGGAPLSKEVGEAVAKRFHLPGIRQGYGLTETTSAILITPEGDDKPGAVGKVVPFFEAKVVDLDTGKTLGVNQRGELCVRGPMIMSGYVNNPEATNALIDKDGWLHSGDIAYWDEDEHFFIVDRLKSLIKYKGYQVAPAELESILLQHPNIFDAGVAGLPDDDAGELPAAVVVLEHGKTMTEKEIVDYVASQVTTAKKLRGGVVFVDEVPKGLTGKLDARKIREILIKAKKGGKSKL

HT-1080 = assay: cytotoxicity in HT1080 fibrosarcoma cells, cell-based, fluorescence readout (AID 620); format: functional; conditions: Homo sapiens
[10] = P. falciparum Dd2 growth inhibitors, dose response, SYBR Green, cherry-picked samples (AID 1159567); format: functional, cell-based

Cc1ccc(Nc2nnc(SCC(=O)NC(Cc3c[nH]c4ccccc34)C(=O)O)s2)cc1 (centres undefined)
IC50 (Leucine aminopeptidase): 3.25 µM (active)
IC50 (Aspartyl aminopeptidase): > 73.5 µM (not active)
IC50 (Procathepsin L): > 59.6 µM (not active)

O=C(OCc1ccccn1)c1ccc(COc2ccc3ccccc3c2)o1
IC50 [1]: 2.61 µM (active)

CN1C(=O)S/C(=C/c2ccc(OCc3cccc(C(=O)O)c3)cc2)C1=O
IC50 [1]: > 20 µM (not active)
IC50 (Caspase-3): 88.1 µM (active)
IC50 [2]: 6.05 µM (active)
IC50 [3]: 4.42 µM (active)
IC50 [4]: 8.88 µM (active)

CCC(=O)n1nc(-c2cccnc2)nc1NCc1ccccc1
IC50 (Prothrombin): 0.0029 µM (active)

C=CCNc1nc(NCc2ccccc2)c(C#N)c2c1CN(C)CC2
EC50 [5]: > 120 µM (not active)
EC50 [6]: > 120 µM (not active)
EC50 [7]: > 120 µM (not active)
IC50 [8]: > 50 µM (not active)
EC50 (Kallikrein-7): 13.1 µM (inactive)

Cc1cc(C)n(-c2nc3ccccc3nc2N2CCC(C)CC2)n1
EC50 [9]: 1.01 µM (active)
EC50 (HT-1080): > 50 µM (not active)

O=C(CCC1CCCN(C(=O)C2(c3ccccc3)CC2)C1)N1CCN(c2ccccn2)CC1 (centres undefined)
IC50 (Prothrombin): > 50 µM (not active)

C#CCn1cc(/C=C2\NC(=O)NC2=O)c2ccccc21
IC50 [1]: 1.31 µM (active)

N#Cc1c(NC(=O)C2CC(Cl)=CCC2C(=O)O)sc2c1CCCC2 (centres undefined)
IC50 (Leucine aminopeptidase): < 1 µM (active)
IC50 (Aspartyl aminopeptidase): > 73.5 µM (not active)
IC50 (Procathepsin L): > 59.6 µM (not active)

CCCCN1C(=O)NC(=O)C2(Cc3c(nc4ccccn4c3=O)N3CCc4ccccc4C32)C1=O (centres undefined)
IC50 (Prothrombin): 5.42 µM (active)

COc1ccc2c3c(n(C)c2c1)[C@@H](CO)N(Cc1ccccc1)CC31CCN(S(=O)(=O)c2ccc(C)cc2)CC1
AC50 [10]: 6.1 µM (active)
